Assay results reported in US6737383B1, “Herbicidal oxadiazolidines” (priority 1999, dated 2004).

How the values were obtained:
[1] = tested on: rape; experiment: Test B pre/postemergence rape; type: in vivo, Brassica napus
How it was run: (§1)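 Response is a visual 0-to-10 score relative to untreated plants, where 0 means no effect and 10 means complete control, taken twelve to sixteen days after application. Treatments went onto soil at planting and onto foliage of 1- to 4-leaf plants, using a surfactant-containing non-phytotoxic solvent.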

[2] = tested on: wild oat; experiment: Test B pre/postemergence wild oat; type: in vivo, Avena fatua; details: for Plant response rating, Wild oats: Postemergence
How it was run: as §1

[3] = tested on: wheat; experiment: Test B pre/postemergence wheat; type: in vivo, Triticum aestivum; details: for Plant response rating, Wheat: Postemergence
How it was run: as §1

[4] = tested on: bedstraw; experiment: Test B pre/postemergence bedstraw; type: in vivo, Galium aparine; details: for Plant response rating, Bedstraw: Postemergence
How it was run: as §1

[5] = tested on: blackgrass; experiment: Test B pre/postemergence blackgrass; type: in vivo, Alopecurus myosuroides
How it was run: as §1

[6] = tested on: surinam grass; experiment: Test B pre/postemergence surinam grass; type: in vivo, Brachiaria decumbens
How it was run: as §1

[7] = tested on: soybean; experiment: Test B pre/postemergence soybean; type: in vivo, Glycine max; details: for Plant response rating, Soybean: Postemergence
How it was run: as §1

[8] = tested on: morningglory; experiment: Test B pre/postemergence morningglory; type: in vivo, Ipomoea hederacea
How it was run: as §1

[9] = tested on: crabgrass; experiment: Test B pre/postemergence crabgrass; type: in vivo, Digitaria sanguinalis
How it was run: as §1

[10] = tested on: sugar beet; experiment: Test B pre/postemergence sugar beet; type: in vivo, Beta vulgaris; details: for Plant response rating, Sugarbeets: Postemergence
How it was run: as §1

[11] = tested on: corn; experiment: Test B pre/postemergence corn; type: in vivo, Zea mays
How it was run: as §1

[12] = tested on: velvetleaf; experiment: Test B pre/postemergence velvetleaf; type: in vivo, Abutilon theophrasti; details: for Plant response rating, Velvetleaf: Postemergence
How it was run: as §1

[13] = tested on: cocklebur; experiment: Test B pre/postemergence cocklebur; type: in vivo, Xanthium strumarium
How it was run: as §1

[14] = tested on: purple nutsedge; experiment: Test B pre/postemergence purple nutsedge; type: in vivo, Cyperus rotundus
How it was run: as §1

[15] = tested on: pigweed; experiment: Test B pre/postemergence pigweed; type: in vivo, Amaranthus retroflexus; details: for Plant response rating, Redroot pigweed: Postemergence
How it was run: as §1

[16] = tested on: giant foxtail; experiment: Test B pre/postemergence giant foxtail; type: in vivo, Setaria faberii
How it was run: as §1

[17] = Postemergence, Rate 62 g/ha, scale of 0 to 10, 0 is no effect, 10 is complete control
[18] = Postemergence, Rate 125 g/ha, scale 0 to 10, 0 is no effect, 10 is complete control
[19] = Postemergence, Rate 500 g/ha, scale of 0 to 10 where 0 is no effect and 10 is complete control
[20] = Preemergence, Rate 62 g/ha, scale 0 to 10 (0 no effect, 10 complete control)
[21] = Preemergence, Rate 125 g/ha, scale 0 to 10, 0 is no effect, 10 is complete control
[22] = Preemergence, Rate 500 g/ha, scale of 0 to 10 where 0 is no effect and 10 is complete control
[23] = Rate 250 g/ha, Postemergence, scale of 0 to 10 where 0 is no effect and 10 is complete control
[24] = Rate 500 g/ha, scale of 0 to 10 where 0 is no effect and 10 is complete control
[25] = Rate 250 g/ha, scale of 0 to 10 where 0 is no effect and 10 is complete control

Question: For `CC(=O)C(C)n1c(=O)on(C(=O)N(c2ccccc2)C(C)C)c1=O` (centres unmarked) [Compound 576], which “Rape plant response rating” value [1, 17] is on record?
Answer: 0

Question: And the “Rape plant response rating” value [1, 18]?
Answer: 0

Question: And the “Plant response rating, Rape” value [1, 19]?
Answer: 0

Question: And the “Rape plant response rating” value [1, 20]?
Answer: 0

Question: And the “Rape plant response rating” value [1, 21]?
Answer: 0

Question: And the “Rape plant response rating (0 to 10 scale)” value ([1]; Preemergence, Rate 250 g/ha)?
Answer: 2

Question: And the “Rape plant response rating” value [1, 22]?
Answer: 7

Question: And the “Plant response rating, Rape” value [1, 23]?
Answer: 0

Question: And the “Plant response rating, Wild oats” value [2, 24]?
Answer: 0

Question: And the “Wild oats plant response rating” value [2, 20]?
Answer: 0

Question: And the “Wild oats plant response rating” value [2, 21]?
Answer: 0

Question: What about the “Wild oats plant response rating (0 to 10 scale)” value ([2]; Preemergence, Rate 250 g/ha) of the same compound?
Answer: 3

Question: What about the “Wild oats plant response rating” value [2, 22] of the same compound?
Answer: 8

Question: What about the “Plant response rating, Wild oats” value [2, 25] of the same compound?
Answer: 0

Question: What about the “Plant response rating, Wheat” value [3, 24] of the same compound?
Answer: 0

Question: What about the “Wheat plant response rating” value [3, 20] of the same compound?
Answer: 0

Question: And the “Wheat plant response rating” value [3, 21]?
Answer: 6

Question: What about the “Wheat plant response rating (0 to 10 scale)” value ([3]; Preemergence, Rate 250 g/ha) of the same compound?
Answer: 8

Question: What about the “Wheat plant response rating” value [3, 22] of the same compound?
Answer: 8

Question: And the “Plant response rating, Wheat” value [3, 25]?
Answer: 0

Question: What about the “Plant response rating, Bedstraw” value [4, 24] of the same compound?
Answer: 9

Question: What about the “Bedstraw plant response rating” value [4, 20] of the same compound?
Answer: 0

Question: What about the “Bedstraw plant response rating” value [4, 21] of the same compound?
Answer: 0

Question: What about the “Bedstraw plant response rating (0 to 10 scale)” value ([4]; Preemergence, Rate 250 g/ha) of the same compound?
Answer: 0

Question: And the “Bedstraw plant response rating” value [4, 22]?
Answer: 0

Question: And the “Plant response rating, Bedstraw” value [4, 25]?
Answer: 5

Question: What about the “Blackgrass plant response rating” value [5, 17] of the same compound?
Answer: 0

Question: What about the “Blackgrass plant response rating” value [5, 18] of the same compound?
Answer: 0

Question: What about the “Plant response rating, Blackgrass” value [5, 19] of the same compound?
Answer: 7

Question: What about the “Blackgrass plant response rating” value [5, 20] of the same compound?
Answer: 0

Question: And the “Blackgrass plant response rating” value [5, 21]?
Answer: 3

Question: And the “Blackgrass plant response rating (0 to 10 scale)” value ([5]; Preemergence, Rate 250 g/ha)?
Answer: 6

Question: What about the “Blackgrass plant response rating” value [5, 22] of the same compound?
Answer: 9

Question: What about the “Plant response rating, Blackgrass” value [5, 23] of the same compound?
Answer: 2

Question: What about the “B. signalgrass plant response rating” value [6, 17] of the same compound?
Answer: 0

Question: What about the “B. signalgrass plant response rating” value [6, 18] of the same compound?
Answer: 0

Question: And the “Plant response rating, B. signalgrass” value [6, 19]?
Answer: 2

Question: And the “B. signalgrass plant response rating” value [6, 20]?
Answer: 0

Question: And the “B. signalgrass plant response rating” value [6, 21]?
Answer: 3

Question: And the “B. signalgrass plant response rating (0 to 10 scale, 0 is no effect, 10 is complete control)” value ([6]; Preemergence, Rate 250 g/ha)?
Answer: 6

Question: What about the “B. signalgrass plant response rating” value [6, 22] of the same compound?
Answer: 9

Question: And the “Plant response rating, B. signalgrass” value [6, 23]?
Answer: 0

Question: And the “Plant response rating, Soybean” value [7, 24]?
Answer: 4

Question: What about the “Soybean plant response rating” value [7, 20] of the same compound?
Answer: 0

Question: What about the “Soybean plant response rating” value [7, 21] of the same compound?
Answer: 0

Question: And the “Soybean plant response rating (0 to 10 scale)” value ([7]; Preemergence, Rate 250 g/ha)?
Answer: 0

Question: And the “Soybean plant response rating” value [7, 22]?
Answer: 0

Question: What about the “Plant response rating, Soybean” value [7, 25] of the same compound?
Answer: 3

Question: And the “Morningglory plant response rating” value [8, 17]?
Answer: 2

Question: And the “Morningglory plant response rating” value [8, 18]?
Answer: 2

Question: And the “Plant response rating, Morningglory” value [8, 19]?
Answer: 4

Question: What about the “Morningglory plant response rating” value [8, 20] of the same compound?
Answer: 0

Question: What about the “Morningglory plant response rating” value [8, 21] of the same compound?
Answer: 0

Question: And the “Morningglory plant response rating (0 to 10 scale)” value ([8]; Preemergence, Rate 250 g/ha)?
Answer: 0

Question: And the “Morningglory plant response rating” value [8, 22]?
Answer: 0

Question: What about the “Plant response rating, Morningglory” value [8, 23] of the same compound?
Answer: 4

Question: What about the “Crabgrass plant response rating” value [9, 17] of the same compound?
Answer: 2

Question: What about the “Crabgrass plant response rating” value [9, 18] of the same compound?
Answer: 3

Question: What about the “Plant response rating, Crabgrass” value [9, 19] of the same compound?
Answer: 9

Question: And the “Crabgrass plant response rating” value [9, 20]?
Answer: 0

Question: And the “Crabgrass plant response rating” value [9, 21]?
Answer: 4

Question: And the “Crabgrass plant response rating (0 to 10 scale)” value ([9]; Preemergence, Rate 250 g/ha)?
Answer: 9

Question: What about the “Crabgrass plant response rating” value [9, 22] of the same compound?
Answer: 9

Question: And the “Plant response rating, Crabgrass” value [9, 23]?
Answer: 9

Question: And the “Plant response rating, Sugarbeets” value [10, 24]?
Answer: 0

Question: What about the “Sugarbeets plant response rating” value [10, 20] of the same compound?
Answer: 0

Question: What about the “Sugarbeets plant response rating” value [10, 21] of the same compound?
Answer: 0

Question: And the “Sugarbeets plant response rating (0 to 10 scale)” value ([10]; Preemergence, Rate 250 g/ha)?
Answer: 4

Question: And the “Sugarbeets plant response rating” value [10, 22]?
Answer: 6

Question: And the “Plant response rating, Sugarbeets” value [10, 25]?
Answer: 0

Question: What about the “Corn plant response rating” value [11, 17] of the same compound?
Answer: 0

Question: And the “Corn plant response rating” value [11, 18]?
Answer: 0

Question: And the “Plant response rating, Corn” value [11, 19]?
Answer: 4

Question: And the “Corn plant response rating” value [11, 20]?
Answer: 0

Question: And the “Corn plant response rating” value [11, 21]?
Answer: 0

Question: What about the “Corn plant response rating (0 to 10 scale)” value ([11]; Preemergence, Rate 250 g/ha) of the same compound?
Answer: 0

Question: And the “Corn plant response rating” value [11, 22]?
Answer: 2

Question: What about the “Plant response rating, Corn” value [11, 23] of the same compound?
Answer: 2

Question: And the “Plant response rating, Velvetleaf” value [12, 24]?
Answer: 0

Question: What about the “Velvetleaf plant response rating” value [12, 20] of the same compound?
Answer: 0

Question: And the “Velvetleaf plant response rating” value [12, 21]?
Answer: 0

Question: And the “Velvetleaf plant response rating (0 to 10 scale)” value ([12]; Preemergence, Rate 250 g/ha)?
Answer: 0

Question: What about the “Velvetleaf plant response rating” value [12, 22] of the same compound?
Answer: 3

Question: And the “Plant response rating, Velvetleaf” value [12, 25]?
Answer: 0

Question: What about the “Cocklebur plant response rating” value [13, 17] of the same compound?
Answer: 0

Question: What about the “Cocklebur plant response rating” value [13, 18] of the same compound?
Answer: 0

Question: And the “Plant response rating, Cocklebur” value [13, 19]?
Answer: 0

Question: What about the “Cocklebur plant response rating” value [13, 20] of the same compound?
Answer: 0

Question: And the “Cocklebur plant response rating” value [13, 21]?
Answer: 0

Question: What about the “Cocklebur plant response rating (0 to 10 scale)” value ([13]; Preemergence, Rate 250 g/ha) of the same compound?
Answer: 0

Question: And the “Cocklebur plant response rating” value [13, 22]?
Answer: 0

Question: What about the “Plant response rating, Cocklebur” value [13, 23] of the same compound?
Answer: 0

Question: And the “Nutsedge plant response rating” value [14, 17]?
Answer: 0

Question: What about the “Nutsedge plant response rating” value [14, 18] of the same compound?
Answer: 0

Question: What about the “Nutsedge plant response rating” value [14, 20] of the same compound?
Answer: 0

Question: And the “Nutsedge plant response rating” value [14, 21]?
Answer: 0

Question: And the “Nutsedge plant response rating (0 to 10 scale)” value ([14]; Preemergence, Rate 250 g/ha)?
Answer: 0

Question: And the “Nutsedge plant response rating” value [14, 22]?
Answer: 8

Question: What about the “Plant response rating, Nutsedge” value [14, 23] of the same compound?
Answer: 0

Question: What about the “Plant response rating, Redroot pigweed” value [15, 24] of the same compound?
Answer: 4

Question: What about the “Redroot pigweed plant response rating” value [15, 20] of the same compound?
Answer: 0

Question: What about the “Redroot pigweed plant response rating” value [15, 21] of the same compound?
Answer: 9

Question: What about the “Redroot pigweed plant response rating (0 to 10 scale)” value ([15]; Preemergence, Rate 250 g/ha) of the same compound?
Answer: 10

Question: And the “Redroot pigweed plant response rating” value [15, 22]?
Answer: 10

Question: And the “Plant response rating, Redroot pigweed” value [15, 25]?
Answer: 0

Question: What about the “Giant foxtail plant response rating” value [16, 17] of the same compound?
Answer: 2

Question: And the “Giant foxtail plant response rating” value [16, 18]?
Answer: 3

Question: What about the “Plant response rating, Giant foxtail” value [16, 19] of the same compound?
Answer: 8

Question: What about the “Giant foxtail plant response rating” value [16, 20] of the same compound?
Answer: 2

Question: And the “Giant foxtail plant response rating” value [16, 21]?
Answer: 4

Question: What about the “Giant foxtail plant response rating (0 to 10 scale)” value ([16]; Preemergence, Rate 250 g/ha) of the same compound?
Answer: 9

Question: What about the “Giant foxtail plant response rating” value [16, 22] of the same compound?
Answer: 9

Question: What about the “Plant response rating, Giant foxtail” value [16, 23] of the same compound?
Answer: 7
